Data on 21 molecules can be found in patent US10188634B2, “3-(3H-imidazo[4,5-C]pyridin-2-yl)-1 H-pyrazolo[4,3-B]pyridines and therapeutic uses thereof” (Samumed, LLC, priority 2015, dated 2019).

In assay [1] the test system is primary human mesenchymal stem cells (hMSCs). Nature of the assay: Induction of chondrogenesis in primary human mesenchymal stem cells (hMSCs), nodule imaging with Rhodamine B / Nile Red. The class given is cell-based. The conditions noted are these: for Emax: hMSCs chondrogenesis, TGF-β3 (10 ng/mL) as positive control, read-out: Max. Activity as % TGF-β3 activity; for EC50: hMSCs, concentration required to induce 50% levels of chondrogenesis vs TGF-β3 positive control, read-out: Conc (nM) of 50% TGF-β3 activity. The procedure, abridged: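 Passage 3-6 hMSCs cultured 6 days at 37° C in incomplete chondrogenic induction medium with compound (2700-10 nM, 96-well; 5000-2.2 nM, 384-well; 0.03% DMSO), TGF-β3 10 ng/mL as positive control. Fixed nodules stained with Rhodamine B/Nile Red, imaged at 531/625 nm; nodule area normalized to DMSO wells for EC50, maximum activity and dose at maximum.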

In assay [2] the test system is LL29 cells (primary human fibroblasts derived from IPF patients) treated with TGF-β1, α-smooth muscle actin. Nature of the assay: Inhibition of the fibrotic process: αSMA staining in TGF-β1 treated primary human fibroblasts from IPF patients (LL29 cells). The class given is cell-based. The conditions noted are these: Fibroblast, 96 h; for EC50: LL29 cells treated with TGF-β1 (20 ng/mL), 4 days; for inhibition at 10 µM: LL29 cells treated with TGF-β1, 4 days, read-out: percent inhibition in brackets (given for EC50 >10 μM).

Consider `Fc1cccc(-c2cncc3[nH]c(-c4n[nH]c5ccc(-c6cncc(CN7CCC(F)(F)C7)c6)nc45)nc23)c1` [Compound 26, 5-(5-((3,3-Difluoropyrrolidin-1-yl)methyl)pyridin-3-yl)-3-(7-(3-fluorophenyl)-3H-imidazo[4,5-c]pyridin-2-yl)-1H-pyrazolo[4,3-b]pyridine], for which the Emax in assay [1] was determined as 47%. Also, in assay [2], the EC50 stood at 6220 nM.

Regarding `CC(C)Nc1cncc(-c2ccc3[nH]nc(-c4nc5c(-c6cccnc6)cncc5[nH]4)c3n2)c1` [Compound 96, N-Isopropyl-5-(3-(7-(pyridin-3-yl)-3H-imidazo[4,5-c]pyridin-2-yl)-1H-pyrazolo[4,3-b]pyridin-5-yl)pyridin-3-amine], in assay [1], the Emax was 65% and the EC50 amounted to 30 nM. The molecule further yielded an EC50 in assay [2] of 3090 nM.

For `CC(C)Nc1cncc(-c2ccc3[nH]nc(-c4nc5c(-c6ccoc6)cncc5[nH]4)c3n2)c1` [Compound 292, 5-(3-(7-(Furan-3-yl)-3H-imidazo[4,5-c]pyridin-2-yl)-1H-pyrazolo[4,3-b]pyridin-5-yl)-N-isopropylpyridin-3-amine], in assay [1], the Emax was found to be 75% and the EC50 stood at 30 nM. The EC50 in assay [2] was found to be 1150 nM.

Regarding `CN(C)CCOc1cncc(-c2ccc3[nH]nc(-c4nc5c(-c6cccc(F)c6)cncc5[nH]4)c3n2)c1` [Compound 487, 2-((5-(3-(7-(3-Fluorophenyl)-3H-imidazo[4,5-c]pyridin-2-yl)-1H-pyrazolo[4,3-b]pyridin-5-yl)pyridin-3-yl)oxy)-N,N-dimethylethan-1-amine], in assay [1], the Emax was determined as 55% and the EC50 turned out to be 2 nM. In assay [2], the EC50 is above 10000 nM and the inhibition – broadly, how much of the control response was suppressed – at 10 µM was 30.7%.

Take `Cc1ccncc1-c1ccc2[nH]nc(-c3nc4c(-c5cc(F)cc(CNS(C)(=O)=O)c5)cncc4[nH]3)c2n1` [Compound 453, N-(3-Fluoro-5-(2-(5-(4-methylpyridin-3-yl)-1H-pyrazolo[4,3-b]pyridin-3-yl)-3H-imidazo[4,5-c]pyridin-7-yl)benzyl)methanesulfonamide]: the Emax in assay [1] worked out at 35%. In addition, in assay [2], the EC50 was above 10000 nM and the inhibition at 10 µM was determined as 0%.

On to `Fc1ccc(-c2cncc3[nH]c(-c4n[nH]c5ccc(-c6cncc(CN7CCCC7)c6)nc45)nc23)cc1` [Compound 42, 3-(7-(4-Fluorophenyl)-3H-imidazo[4,5-c]pyrid-2-yl)-5-(5-(pyrrolidin-1-ylmethyl)pyridin-3-yl)-1H-pyrazolo[4,3-b]pyridine], for which the Emax in assay [1] was 15%. In assay [2], this molecule came in with an EC50 of 2470 nM.

Regarding `COc1cncc(-c2ccc3[nH]nc(-c4nc5c(-c6cccc(F)c6)cncc5[nH]4)c3n2)c1` [Compound 488, 3-(7-(3-Fluorophenyl)-3H-imidazo[4,5-c]pyridin-2-yl)-5-(5-methoxylpyridin-3-yl)-1H-pyrazolo[4,3-b]pyridine], in assay [1], the Emax was 56% and the EC50 amounted to 21 nM. Further, in assay [2], the EC50 was above 10000 nM and the inhibition at 10 µM was determined as 0%.

As for `CC(C)(C)C(=O)Nc1cncc(-c2ccc3[nH]nc(-c4nc5c(-c6ccc(F)cc6)cncc5[nH]4)c3n2)c1` [Compound 36, N-(5-(3-(7-(4-Fluorophenyl)-3H-imidazo[4,5-c]pyridin-2-yl)-1H-pyrazolo[4,3-b]pyridin-5-yl)pyridin-3-yl)pivalamide], in assay [1], the Emax is 42%. Moreover, the EC50 in assay [2] is 1220 nM.

As for `CCCC(=O)Nc1cncc(-c2ccc3[nH]nc(-c4nc5c(-c6ccsc6)cncc5[nH]4)c3n2)c1` [Compound 269, N-(5-(3-(7-(Thiophen-3-yl)-3H-imidazo[4,5-c]pyridin-2-yl)-1H-pyrazolo[4,3-b]pyridin-5-yl)pyridin-3-yl)butyramide], in assay [1], the Emax worked out at 58% and the EC50 came to 21 nM. The EC50 in assay [2] worked out at 7220 nM.

Regarding `CN(C)c1cncc(-c2ccc3[nH]nc(-c4nc5c(N6CCCCC6)cncc5[nH]4)c3n2)c1` [Compound 175, N,N-dimethyl-5-(3-(7-(piperidin-1-yl)-3H-imidazo[4,5-c]pyridin-2-yl)-1H-pyrazolo[4,3-b]pyridin-5-yl)pyridin-3-amine], in assay [1], the Emax is 67% and the EC50 was determined as 100 nM. This molecule also returned an EC50 in assay [2] of 1310 nM.

Consider `Clc1ccc(-c2cncc3[nH]c(-c4n[nH]c5ccc(-c6cncc(CN7CCCC7)c6)nc45)nc23)s1` [Compound 1004, 3-(7-(5-Chlorothiophen-2-yl)-3H-imidazo[4,5-c]pyridin-2-yl)-5-(5-(pyrrolidin-1-ylmethyl)pyridin-3-yl)-1H-pyrazolo[4,3-b]pyridine], for which, in assay [1], the Emax amounted to 62% and the EC50 was determined as 10 nM. In assay [2], the EC50 turned out to be 3470 nM.

For the molecule `CN(C)c1cncc(-c2ccc3[nH]nc(-c4nc5c(-c6cccs6)cncc5[nH]4)c3n2)c1` [Compound 315, N,N-Dimethyl-5-(3-(7-(thiophen-2-yl)-3H-imidazo[4,5-c]pyridin-2-yl)-1H-pyrazolo[4,3-b]pyridin-5-yl)pyridin-3-amine], in assay [1], the Emax is 66% and the EC50 amounted to 10 nM. In assay [2], the EC50 was above 10000 nM and the inhibition at 10 µM worked out at 34.3%.

With `CC(C)(C)C(=O)Nc1cncc(-c2ccc3[nH]nc(-c4nc5c(-c6ccc(Cl)s6)cncc5[nH]4)c3n2)c1` [Compound 998, N-(5-(3-(7-(5-Chlorothiophen-2-yl)-3H-imidazo[4,5-c]pyridin-2-yl)-1H-pyrazolo[4,3-b]pyridin-5-yl)pyridin-3-yl)pivalamide], in assay [1], the Emax turned out to be 85%. Also, the EC50 in assay [1] amounted to 10 nM; in assay [2] it was 2700 nM.

With `CN(C)Cc1cncc(-c2ccc3[nH]nc(-c4nc5c(-c6cccc(F)c6)cncc5[nH]4)c3n2)c1` [Compound 13, 1-(5-(3-(7-(3-Fluorophenyl)-3H-imidazo[4,5-c]pyridin-2-yl)-1H-pyrazolo[4,3-b]pyridin-5-yl)pyridin-3-yl)-N,N-dimethylmethanamine], the Emax in assay [1] worked out at 17%. The EC50 in assay [2] stood at 479 nM.

For `O=C(Nc1cncc(-c2ccc3[nH]nc(-c4nc5c(-c6ccc(Cl)s6)cncc5[nH]4)c3n2)c1)C1CCC1` [Compound 1011, N-(5-(3-(7-(5-Chlorothiophen-2-yl)-3H-imidazo[4,5-c]pyridin-2-yl)-1H-pyrazolo[4,3-b]pyridin-5-yl)pyridin-3-yl)cyclobutanecarboxamide], the Emax in assay [1] was 68%. The EC50 in assay [1] was found to be 30 nM; in assay [2] it was 1050 nM.

Take `Cc1ccc(-c2cncc3[nH]c(-c4n[nH]c5ccc(-c6cncc(N)c6)nc45)nc23)s1` [Compound 367, 5-(3-(7-(5-Methylthiophen-2-yl)-3H-imidazo[4,5-c]pyridin-2-yl)-1H-pyrazolo[4,3-b]pyridin-5-yl)pyridin-3-amine]: the Emax in assay [1] was 79%. Also, the results for the EC50 in assay [1] and in assay [2] were 30 nM and 815 nM, respectively.

As for `CN(C)c1cncc(-c2ccc3[nH]nc(-c4nc5c(-c6cccc(F)c6)cncc5[nH]4)c3n2)c1` [Compound 7, 5-(3-(7-(3-Fluorophenyl)-3H-imidazo[4,5-c]pyridin-2-yl)-1H-pyrazolo[4,3-b]pyridin-5-yl)-N,N-dimethylpyridin-3-amine], in assay [1], the Emax was determined as 154% and the EC50 is 10 nM. In assay [2], the EC50 is above 10000 nM and the inhibition at 10 µM worked out at 0%.

`FC1(F)CCN(Cc2cncc(-c3ccc4[nH]nc(-c5nc6c(-c7ccsc7)cncc6[nH]5)c4n3)c2)C1` [Compound 278, 5-(5-((3,3-difluoropyrrolidin-1-yl)methyl)pyridin-3-yl)-3-(7-(thiophen-3-yl)-3H-imidazo[4,5-c]pyridin-2-yl)-1H-pyrazolo[4,3-b]pyridine]: in assay [1], the Emax was found to be 67% and the EC50 was found to be 10 nM. This molecule also yielded an EC50 in assay [2] of 1700 nM.

Turning to `CC(C)CC(=O)Nc1cncc(-c2ccc3[nH]nc(-c4nc5c(-c6ccc(Cl)s6)cncc5[nH]4)c3n2)c1` [Compound 992, N-(5-(3-(7-(5-Chlorothiophen-2-yl)-3H-imidazo[4,5-c]pyridin-2-yl)-1H-pyrazolo[4,3-b]pyridin-5-yl)pyridin-3-yl)-3-methylbutanamide], the Emax in assay [1] was determined as 61%. Further, the EC50 in assay [1] was determined as 10 nM; in assay [2] it was 2290 nM.

Turning to `CC(C)Nc1cncc(-c2ccc3[nH]nc(-c4nc5c(-c6cc(F)cc(NCCN(C)C)c6)cncc5[nH]4)c3n2)c1` [Compound 432, N^1-(3-Fluoro-5-(2-(5-(5-(isopropylamino)pyridin-3-yl)-1H-pyrazolo[4,3-b]pyridin-3-yl)-3H-imidazo[4,5-c]pyridin-7-yl)phenyl)-N^2,N^2-dimethylethane-1,2-diamine], in assay [1], the Emax worked out at 97% and the EC50 was found to be 300 nM. In addition, the EC50 in assay [2] turned out to be 6400 nM.

With `Cc1ccncc1-c1ccc2[nH]nc(-c3nc4c(-c5ccsc5)cncc4[nH]3)c2n1` [Compound 257, 5-(4-Methylpyridin-3-yl)-3-(7-(thiophen-3-yl)-3H-imidazo[4,5-c]pyridin-2-yl)-1H-pyrazolo[4,3-b]pyridine], the Emax in assay [1] was 24%. This molecule displayed an EC50 in assay [2] of 8550 nM.
